Data from patent publication US9220746B2, “Compounds and methods for treating bone disorders and controlling weight” (The University of North Carolina at Chapel Hill, priority 2009, dated 2015).

Tests used:
3T3L1 = assay: Fat cell differentiation of 3T3L1 cells, oil red O staining; assay type: cell-based
Method: In some assays, fat cell data were obtained by using the cell line 3T3L1, which is used to study fat cell differentiation. These cells are grown as fat cell precursors. These cells are maintained in Hams F12 with fetal calf serum and 15 mM glutamine. To stimulate them to enter the fat cell differentiation pathway, isomethylbutylxanine, dexamethasone and insulin are added using concentrations of 0.5 mM IBMX 16.7 nM insulin and 0.1 uM dexamethasone. In some cases 100 ng/ml IGF-I was added instead of insulin. Three days after the addition, differentiation into adipocytes is apparent and is detected by oil red O staining.
To determine the effects of the peptide of SEQ ID NO:1, it was added at concentrations of 20 ng/ml, 200 ng/ml and 2 ug/ml. A detectable inhibition of adipocyte differentiation, as determined by a decrease in the number of oil red O positive cells, was detected using 20 ng/ml of peptide. The response was maximal at 200 ng/ml and not increased further by adding 2 mcg/ml.
For oil red O staining, a stock solution of […] isoproponol is prepared. 60 ml of solution is mixed with 40 ml of water and allowed to sit at room temperature for an hour and then filtered. The media is aspirated from the adipocyte cultures and cells are fixed in 1% formaldehyde. Formaldehyde is aspirated and the oil red O solution is added in an amount necessary to cover the cells, which are then left at room temperature for one hour. The stain is then removed and the plates are washed with distilled water and dried. Typically 60-70% of the cells stain positive after 3 days.

PTEN = assay: Western blot analysis of PTEN expression; assay type: cell-based, mouse; conditions: for PTEN concentrations: aortic smooth muscle and bone cells from IGFBP-2 gene deleted mice, exogenous addition
Method: FIG. 5. The heparin-binding domain of IGFBP2 suppresses PTEN expression. a and b, Igfbp2^−/− calvarial osteoblasts (COBs) were isolated, and treated with PBS, IGFBP-2 or pegylated heparin-binding domain peptide (PEG-HBD) in MEMα containing 0.1% BSA overnight. Whole cell lysate was collected and expression of PTEN and α-actin was analyzed by Western blot analysis. Expression levels of PTEN were quantified by normalizing to the expression levels of α-actin. c and d. COBs pre-incubated with PBS, IGFBP-2 or PEG-HBD overnight were treated with IGF-I (100 ng/ml) for 15 minutes. Whole cell lysate was collected and expression of pSer473-Akt and Akt was analyzed by Western blot analysis. Expression levels of pSer473-Akt were quantified by normalizing to the expression levels of Akt. Figures shown represent at least 3 independent experiments. Values are expressed as the mean±SEM (n=3-4). Statistical difference was analyzed by Student's t-test. *; <0.001, **; <0.01, ^†; <0.05.
FIG. 9. […] Igfbp2^+/+ calvarial osteoblasts were treated with PBS, control peptide, or heparin-binding domain peptide (HBD-peptide) overnight, and whole cell lysate was collected. PTEN expression was analyzed using western blot analysis (a), and quantitative analysis was performed (b). Values were expressed as the mean±SEM (n=3). Statistical significance was analyzed by ANOVA followed by Bonferroni post-hoc test. ^a; p<0.01 vs. PBS, ^b; p<0.01 vs. control peptide.
To prepare whole cell lysates, cells were solubilized in RIPA buffer^55. For cytosolic fraction, cells were solubilized with hypotonic buffer containing protease and phosphatase inhibitors (10 mM Tris, 0.2 mM MgCl2, pH 7.4) and kept on ice for 10 min. Cell lysates were mixed with sucrose buffer (final concentration; 25 mM Sucrose, 0.1 mM EDTA) and centrifuged at 20,000×g for 1 hour. Supernatant was used as cytosolic fraction. To prepare the membrane fraction, cells were solubilized with PBS containing protease and phosphatase inhibitors. The lysates were frozen at −80° C. for 1 h and thawed at room temperature. After three cycles, they were centrifuged at 13,000×g for 25 min. The pellet was suspended with membrane protein isolation buffer (20 mM Tris-HCl; 150 mM NaCl; 1 mM EDTA; 1 mM EGTA; and 1% Triton X-100, pH 7.5) containing protease and phosphatase inhibitors. Protein concentration was assessed by BCA protein assay kit (Thermo Scientific) and equal amounts of sample were separated by SDS-PAGE and transferred electrophoretically to nitrocellulose membranes. Membranes were blocked in 5% BSA in Tris-buffered saline. […]

mouse metatarsal bones = assay: Ex vivo metatarsal explant bone growth and mineralization; assay type: cell-based; conditions: for bone growth and calcification: metatarsals derived from IGFBP-2−/− mice, 20-200 ng/ml
Excerpt: This system uses an ex vivo explant system, therefore it is a transition between cultured cells and in vivo experiments. The bone forming tissue is removed directly from a mouse and then grown in organ culture for several days. The test additives can be added directly to the medium at any concentration in order to test for biological activity. The method is as follows: mouse metatarsal bones were isolated from newborn mice between days 0 and 3 after birth using the dissecting microscope. The middle three metatarsals were used for all experiments. Three metatarsals were incubated per well in a 24 well tissue culture dish in DMEM containing 0.5% bovine serum, […], 1 mM beta glycerol phosphate at 37° C. The medium was replaced one day later and the metatarsals are cultured for up to 10 days. Growth was measured by quantitative increase in size, both length and width of the bones using an inverted phase microscope with a built in micrometer scaling bar for measurements. Mineralization was assessed by the addition of calcein (500 ng/ml) to the medium for 2 hrs prior to tissue fixation. Fluorescent images were captured using a digital camera attached to an inverted microscope and quantifying calcein fluorescence under the appropriate […] stimulus. Bone and cartilage histology were measured by fixing the bones in 4% PFA overnight and storing at 70% ethanol, followed by […] embedding sectioning and staining. Sections were stained with H&E, Alizaran red or alkaline phosphatase. For analysis of proteins, the tissue was homogenized in Laemmli sample buffer and gels were run using standard SDS polyacrylamide gel electrophoresis and western blotting.

| Molecule | concentration at which inhibition of adipocyte differentiation (decrease in oil red O positive cells) was detectable (3T3L1; 3T3L1, added at 20 ng/ml, 200 ng/ml and 2 ug/ml) [ng/mL] | concentration at which the response (inhibition of adipocyte differentiation) was maximal (3T3L1; 3T3L1, not increased further by 2 mcg/ml) [ng/mL] | oil red O positive cells at maximum effect of the peptide (3T3L1; typically 60-70% of the cells stain positive after 3 days) [%] | PTEN concentrations (PTEN) | bone growth and calcification (mouse metatarsal bones) | effect on bone growth (mouse metatarsal bones; metatarsals from normal mice) | concentrations found to inhibit adipocyte differentiation (3T3L1; 3T3L1, tested in parallel) [ng/mL] | PTEN expression (PTEN; primary calvarial osteoblasts, overnight treatment) |
| --- | --- | --- | --- | --- | --- | --- | --- | --- |
| KHHLGLEEPKKLR (IGFBP-2 heparin binding domain-containing peptide sequence) [peptide of SEQ ID NO:1] | 20 | 200 | < 20 | could suppress PTEN concentrations | stimulated bone growth and calcification | modest additional stimulatory effect |  |  |
| IGFBP-2: Insulin-like growth factor binding protein-2, 36,000 dalton protein, purified from cellular conditioned medium (protein, UniProt P18065 36-325, looked up) Insulin-like growth …: AEVLFRCPPCTPERLAACGPPPVAPPAAVAAVAGGARMPCAELVREPGCGCCSVCARLEGEACGVYTPRCGQGLRCYPHPGSELPLQALVMGEGTCEKRRDAEYGASPEQVADNGDDHSEGGLVENHVDSTMNMLGGGGSAGRKPLKSGMKELAVFREKVTEQHRQMGKGGKHHLGLEEPKKLRPPPARTPCQQELDQVLERISTMRLPDERGPLEHLYSLHIPNCDKHGLYNLKQCKMSLNGQRGECWCVNPNTGKLIQGAPTIRGDPECHLFYNEQQEARGVHTQRMQ |  |  |  | could suppress PTEN concentrations | stimulated bone growth and calcification |  | 50 to 500 | markedly suppressed PTEN expression |
